Assays:
[1] = tested on: PARP cleavage in Jurkat cells; experiment: Inhibition of PARP cleavage in antiFas-treated Jurkat cells (Example 22, Western blot); type: cell-based, human; conditions: for inhibition of PARP cleavage: antiFas-treated Jurkat cells
From the text: The cleavage of the enzyme poly(ADP)ribose polymerase (PARP) appears to occur in all cells in which the caspase proteolytic cascade is activated. For this reason, PARP cleavage is widely used as a biochemical marker for caspase-mediated apoptosis. The ability of a cytoprotective drug to block PARP cleavage is considered to be an indication of the drug's ability to inhibit the caspase proteolytic cascade and, in particular, CPP32 (caspase-3), the main PARP protease. The ability of Cbz-Val-Asp(OMe)-CH2F to inhibit PARP cleavage was examined during Fas-mediated apoptosis of Jurkat cells, a human T-cell line. This cell culture model of apoptosis is well-characterized and is known to involve activation of at least two caspases, caspase-3 (CPP32) and caspase-8 (FLICE/MACH).
For PARP cleavage assays, Jurkat cells were seeded at a density of 500,000 cells per well in six-well multidishes in RPMI 1640 medium containing 10% FBS. The cells were pre-incubated with Cbz-Val-Asp(OMe)-CH2F or other test compounds for 2 hours at 37° C. in a CO2 incubator and then a monoclonal antibody to Fas was added at a final concentration of 500 ng/mL. Incubation at 37° C. in a CO2 incubator was continued for an additional 4 hours. […] An amount of lysate corresponding to 10 to 20 μg of protein was loaded on a 7.5% SDS polyacrylamide gel and electrophoresed for 2 to 2.5 hrs at 25 mA. The protein was then transferred to a PVDF membrane, probed with a rabbit polyclonal antibody to PARP, and visualized using chemiluminescence.
Jurkat cells were pre-incubated with 0.5, 5, or 50 μM of the following compounds: Cbz-Val-Asp(OMe)-CH2F (compound 1); BOC-Asp(OMe)-CH2F (compound 5); Cbz-Asp-α-([2,6-dichlorobenzoyloxy]-methyl ketone) (compound 6), Cbz-Glu(OMe)-Val-Asp(OMe)-CH2F (compound 3), Cbz-Asp(OMe)-Glu(OMe)-Val-Asp(OMe)-CH2F (SEQ ID NO:1) (compound 2), Cbz-Ile-Glu(OMe)-Thr-Asp(OMe)-CH2F (SEQ ID NO:2) (compound 4), or Cbz-Val-Ala-Asp(OMe)-CH2F (compound 7). The cells were then treated with antiFas and processed for Western Blotting.

Caspase-6 = molecular target: T1, Caspase-6 (Homo sapiens, UniProt P55212); experiment: Recombinant caspase assay with Ac-DEVD-AMC, caspase-6; type: biochemical; conditions: 10 μM Ac-DEVD-AMC, 30 minutes at 37° C.
T1 construct: purchased PharMington (PharMingen, a Becton division company, San Diego, Calif.)
T1 sequence (P55212 24-179 limits assumed): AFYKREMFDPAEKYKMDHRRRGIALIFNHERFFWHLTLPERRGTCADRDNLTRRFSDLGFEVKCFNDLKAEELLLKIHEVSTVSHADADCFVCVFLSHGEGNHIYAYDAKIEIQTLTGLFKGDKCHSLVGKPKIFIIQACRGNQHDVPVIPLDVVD
Method: (§1) The inhibitory activity of Cbz-Val-Asp-CH2F in recombinant caspase 3, 6, 7 and 8 obtained from PharMington (a Becton division company, San Diego, Calif.) were measured using Ac-DEVD-AMC (SEQ ID NO:1). The amount of each enzyme per assay was as following: 1 ng caspase3, 15 ng caspase6, 2 ng caspase7 and 60 ng caspase8. The enzyme reaction was conducted in 96-well plate using a caspase buffer (20 mM PIPES, 100 mM NaCl, 10 mM DTT, 1 mM EDTA, 0.1% CHAPS and 10% sucrose, pH 7.2) and the reaction was initiated by adding 10 μM Ac-DEVD-AMC (SEQ ID NO:1) (purchased from Quality Controlled Biochemicals, Inc. Hopkinton, Mass.). Twelve concentrations of Cbz-Val-Asp-CH2F ranged from 30 μM to […] were tested after incubation of the compound with recombinant caspases for 30 minutes at 37° C. […] The data was analyzed using GraphPrism software.

Caspase-3 = molecular target: T2, Caspase-3 (Homo sapiens, UniProt P42574); experiment: Recombinant caspase assay with Ac-DEVD-AMC, caspase-3; type: biochemical; conditions: 10 μM Ac-DEVD-AMC, 30 minutes at 37° C.
T2 sequence (P42574 29-175 limits assumed): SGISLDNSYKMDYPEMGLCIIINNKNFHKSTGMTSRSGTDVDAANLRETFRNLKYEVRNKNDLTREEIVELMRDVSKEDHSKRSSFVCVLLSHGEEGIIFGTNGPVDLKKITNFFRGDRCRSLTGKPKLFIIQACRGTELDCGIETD
Method: as §1

Question: For COC(=O)CC(NC(=O)C(NC(=O)OCc1ccccc1)C(C)C)C(=O)CF (stereo not drawn) [Cbz-Val-Asp(OMe)-CH2F, Z-Val-Asp-fmk Methyl Ester], which “inhibition of PARP cleavage” value ([1]; 0.5 μM) is on record?
Answer: significant inhibition

Question: What about the “inhibition of PARP cleavage” value ([1]; 5 μM) of the same compound?
Answer: completely inhibited

Question: What about the “inhibition of PARP cleavage” value ([1]; 50 μM) of the same compound?
Answer: completely inhibited

Question: What about the “concentration blocking the caspase proteolytic cascade in intact cells, fold lower than other known caspase inhibitors” value ([1]; Jurkat cells) of the same compound?
Answer: at least 10 fold

Question: How did the IC50 (Caspase-6) turn out when CC(C)[C@H](NC(=O)OCc1ccccc1)C(=O)NC(CC(=O)O)C(=O)CF (stereo partly drawn) [Cbz-Val-Asp-CH2F, Z-Val-Asp-fmk] was run?
Answer: 18.4 nM

Question: What about the IC50 (Caspase-3) of the same compound?
Answer: 19.8 nM

— patent publication US6949516B2, “Dipeptide apoptosis inhibitors and the use thereof” (Cytovia, Inc., priority 1997, dated 2005)
